According to US20180303928A1 (priority 2017, published 2018):

Columns and labels:
Type in all cases: biochemical, influenza A(H7N2) virus
[1] = system: NA enzymatic activity of A/chicken/NY/99
[2] = system: NA enzymatic activity of A/feline/NY/16
NA of the H7N2 viruses = system: NA of the H7N2 viruses

Structure (SMILES)	Sensitivity to NA inhibitors (50% inhibitory concentration (IC50) of the NA enzymatic activity) [1]	Sensitivity to NA inhibitors (50% inhibitory concentration (IC50) of the NA enzymatic activity) [2]	Susceptibility of the H7N2 viruses to NA inhibitors (NA of the H7N2 viruses)
[H]/N=C(\N)N[C@H]1C=C(C(=O)O)O[C@@H]([C@H](OC)[C@H](O)CO)[C@@H]1NC(C)=O [laninamivir]	sensitive	sensitive	susceptible
CCOC(=O)C1=C[C@@H](OC(CC)CC)[C@H](NC(C)=O)[C@@H](N)C1 [oseltamivir]	sensitive	sensitive	susceptible
CCC(CC)[C@H](NC(C)=O)[C@@H]1[C@H](O)[C@@H](C(=O)O)C[C@H]1N=C(N)N [peramivir]			susceptible
CC(=O)N[C@H]1[C@H]([C@H](O)[C@H](O)CO)OC(C(=O)O)=C[C@@H]1N=C(N)N [zanamivir]	sensitive	sensitive	susceptible
